The text below walks through data of PMC4519256, “Expanding the Described Metabolome of the Marine Cyanobacterium Moorea producens JHB through Orthogonal Natural Products Workflows” (PLoS ONE, 2015).

Usually IC50 stands for the point on the concentration scale where inhibition reaches its midpoint.

The test system of test [1] is human small cell lung cancer (NCI-H187) cell line. Details: method as in PMID 15974628. The settings on record: cited from earlier work.
The test system of test [2] is human carcinoma of the nasopharynx (KB) cell line. On the set-up: method as in PMID 15974628. The settings on record: cited from earlier work.
The test system of a further test is actin. On the set-up: method as in PMID 12088429. The settings on record: cited from earlier work.
For test [3], the system named is veratridine-stimulated Ca2+ influx in neocortical neurons. The experiment in a line: Antagonism of veratridine-stimulated Ca2+ influx in neocortical neurons (fluo-3). Format: cell-based, Swiss-Webster mice. The settings on record: for IC50: Neuron, primary mouse neocortical neurons, three-parameter logistic fit. As for the experimental part: (§1) Primary cultures of neocortical neurons were obtained from embryonic day 16 Swiss-Webster mice as described elsewhere. Briefly, pregnant mice were euthanized by CO2 asphyxiation and embryos were removed under sterile conditions. Neocortices were collected, stripped of meninges, minced by trituration with a Pasteur pipette, and treated with trypsin for 25 min at 37°C. The cells were then dissociated by two successive trituration and sedimentation steps in soybean trypsin inhibitor and DNase containing isolation buffer, centrifuged, and resuspended in Eagle’s minimal essential medium with Earle’s salt (MEM) and supplemented with 1 mM L-glutamine, 10% fetal bovine serum, 10% horse serum, 100 IU/mL penicillin, and 0.10 mg/mL streptomycin (pH 7.4). Cells were plated onto poly-L-lysine-coated 96-well (9 mm), clear-bottomed, black-well culture plates (MidSci, St. Louis, USA) at a density of 1.5 × 10^5 cells/well. Cells were then incubated at 37°C in a 5% CO2 and 95% humidity atmosphere. The culture media was changed every other day, starting from day 5 in-vitro using a serum-free growth medium containing Neurobasal Medium supplemented with B-27, 100 IU/mL penicillin, 0.10 mg/mL streptomycin, and 0.2 mM L-glutamine. Neocortical cultures were used in experiments between 10–11 days in-vitro. All animal use protocols were approved by the Institutional Animal Care and Use Committee (IACUC) of Creighton University.
Cells grown in 96-well plates were used for determination of intracellular Ca^2+ concentration ([Ca^2+]i). Briefly, the growth medium was removed and replaced with dye-loading medium (100 μL per well) containing 4 μM fluo-3 AM and 0.04% pluronic acid in Locke's buffer. […] The cells were incubated in the presence or absence of jamaicamides for 5–7 minutes at 37°C in a 5% CO2 and 95% humidity atmosphere prior to transfer to a FLEX Station II (Molecular Devices) benchtop scanning fluorescence chamber. The fluorescence measurements were performed at 37°C. The cells were excited at 488 nm and Ca^2+-bound fluo-3 emission was recorded at 538 nm at 2 s intervals. After recording baseline fluorescence for 60 s, either vehicle or veratridine was added to each well at a rate of 26 μL/s; the fluorescence was then monitored for an additional 200 s.
(§2) The Fluo-3 and SBFI raw fluorescence emission data were exported to an Excel work sheet. The Fluo-3 fluorescence or SBFI fluorescence ratios (340/380) versus time were analyzed and concentration-response graphs generated using GraphPad Prism software (GraphPad Software Inc., San Diego, CA).

For test [4], the system named is voltage-gated sodium channels. The experiment in a line: Antagonism of veratridine-stimulated Na+ influx in neocortical neurons (SBFI). Format: cell-based, Swiss-Webster mice. The settings on record: for IC50: primary mouse neocortical neurons, three-parameter logistic fit. The method, then: as §1
[Na^+]i measurement and full in-situ calibration of sodium-binding benzofuran isophthalate (SBFI) fluorescence ratio were performed as described previously. Cells grown in 96-well plates were washed four times with Locke's buffer using an automated microplate washer (BioTek Instruments, Winooski, VT). After measuring the background fluorescence of each well, cells were incubated for 1 h at 37°C with dye-loading buffer (100 μL/well) containing 10 μM SBFI-AM (Invitrogen) and 0.02% Pluronic F-127 (Invitrogen). Cells were washed five times with Locke's buffer, leaving a final volume of 150 μL in each well. Jamaicamide addition and preincubation was as described above for Ca^2+ concentration determination. […] Fluorescence readings were taken once every 5 s for 60 s to establish the baseline, then either vehicle (control) or veratridine was added and fluorescence was monitored for an additional 260 s. After correcting for background fluorescence, SBFI fluorescence ratios (340/380) and concentration-response graphs were generated.
as §2

Another test deals with sodium channel. The settings on record: at a concentration of 5 μM, Neuro-2a cells; cited from earlier work.

Consider `CC1C(=O)OC(C(C)(C)O)c2nc(cs2)C(=O)OC(C)(C)C(O)c2nc(cs2)C(=O)OC1CCCC(C)(Cl)Cl` (stereo not drawn) [compound 5, Hectochlorin B], for which the LD50 in test [1] is 0.32 µM; in test [2], 0.31 µM.
As for `CC(=O)O[C@@H]1c2nc(cs2)C(=O)O[C@@H](CCCC(C)(Cl)Cl)[C@H](C)C(=O)O[C@@H](C(C)(C)O)c2nc(cs2)C(=O)OC1(C)C` [compound 1, hectochlorin], the “Effect on actin polymerization” value in the test with actin was “enhances actin polymerization”. Moreover, the LD50 in test [1] was 1.20 µM; in test [2], 0.86 µM.
For the compound `COC(=CC(=O)N1C(=O)C=CC1C)CCNC(=O)CCC=CC(C)CCC(=CCl)CCCC#CI` (stereo not drawn) [compound 12, jamaicamide F], the IC50 in test [3] came to 4300 nM; in test [4], 2300 nM.
Take `CO/C(=C/C(=O)N1C(=O)C=C[C@@H]1C)CCNC(=O)CC/C=C/C(C)CC/C(=C/Cl)CCCC#CBr` (stereo partly drawn) [compound 2, jamaicamide A]: the values for the IC50 in test [3] and in test [4] were 1820 nM and 1100 nM, respectively. Besides, the “Potency relative to the other two jamaicamides tested (Ca2+ influx)” value in test [3] (versus 3 and 12) is 2–3 times. Also, the “Sodium channel blocking activity” value in the test with sodium channel is given as “sodium channel blocking activity”. Besides, the “Potency relative to the other two jamaicamides as a sodium channel blocker (Na+ influx)” value in test [4] (versus 3 and 12, neocortical neurons) is recorded as 2-3 times.
On to `C#CCCC/C(=C\Cl)CCC(C)/C=C/CCC(=O)NCC/C(=C\C(=O)N1C(=O)C=C[C@@H]1C)OC` (stereo partly drawn) [compound 3, jamaicamide B], for which the half-maximal inhibitory concentration (IC50) worked out at 6880 nM in test [3] and 3600 nM in test [4]. In addition, the “Sodium channel blocking activity” value with sodium channel is recorded as “sodium channel blocking activity”.
